Holding throughout (format): functional
One assay relates to Aspergillus terreus. As to the kind of experiment: Antifungal activity against Aspergillus terreus at 1 mg/ml after 72 hr by agar well diffusion method. The following applies: read-out: IZ.
Another assay concerns Aspergillus niger. The experiment in a line: Antifungal activity against Aspergillus niger at 1 mg/ml after 72 hr by agar well diffusion method. The following applies: read-out: IZ.
The subject of a further assay is Pseudomonas aeruginosa. As to the kind of experiment: Antibacterial activity against Pseudomonas aeruginosa at 1 mg/ml after 24 hr by agar well diffusion method. The following applies: for zone of inhibition at 1000 µg/mL: read-out: IZ. (Agar diffusion results depend on both activity and mobility in agar.)
A further assay has as its system Klebsiella pneumoniae. The experiment in a line: Antibacterial activity against Klebsiella pneumoniae at 1 mg/ml after 24 hr by agar well diffusion method. The following applies: for zone of inhibition at 1000 µg/mL: read-out: IZ.
In the next assay the test system is Aspergillus oryzae. The experiment in a line: Antifungal activity against Aspergillus oryzae at 1 mg/ml after 72 hr by agar well diffusion method. The following applies: read-out: IZ.
Another assay has as its system Staphylococcus aureus. The experiment in a line: Antibacterial activity against Staphylococcus aureus at 1 mg/ml after 24 hr by agar well diffusion method. The following applies: for zone of inhibition at 1000 µg/mL: read-out: IZ.
The subject of assay [1] is Radical scavenging activity. As to the kind of experiment: Antioxidant activity assessed as DPPH radical scavenging activity by spectrophotometric analysis. On the technique in general: DPPH is a stable violet radical that fades when it is reduced.
Assay [2] has as its system Radical scavenging activity. The experiment in a line: Antioxidant activity assessed as DPPH radical scavenging activity at 100 ug/ml by spectrophotometric analysis.

≈ marks a conversion by molar mass, not a printed value.

For the compound `Cc1ccc2[nH]c(-c3ccccc3)c(-c3[nH]c(=S)[nH]c(=S)c3C#N)c2c1`, the zone of inhibition at 1000 µg/mL came to 10 mm with Aspergillus terreus; 9 mm with Aspergillus niger; 10 mm in the assay with Pseudomonas aeruginosa; 8 mm in the assay with Klebsiella pneumoniae; 9 mm with Aspergillus oryzae; 9 mm with Staphylococcus aureus.

As to `Cc1ccc2[nH]c(-c3ccccc3)c(-c3nc(NN)nc4[nH]nc(N)c34)c2c1`, the zone of inhibition at 1000 µg/mL in the assay on Aspergillus terreus amounted to 10 mm; in the assay with Aspergillus niger it was 10 mm; in the assay with Pseudomonas aeruginosa it was 12 mm; with Klebsiella pneumoniae it was 13 mm; with Aspergillus oryzae, 9 mm; in the assay with Staphylococcus aureus it was 11 mm.

On to `Cc1ccc2[nH]c(-c3ccccc3)c(-c3nc(NN)nc(NN)c3C#N)c2c1`, for which the zone of inhibition at 1000 µg/mL with Aspergillus terreus stood at 11 mm; with Aspergillus niger, 11 mm; with Pseudomonas aeruginosa, 10 mm; with Klebsiella pneumoniae, 12 mm; with Aspergillus oryzae, 9 mm; in the assay on Staphylococcus aureus, 10 mm.

On to `N#Cc1c(-c2c(-c3ccccc3)[nH]c3ccc(Cl)cc23)[nH]c(=S)[nH]c1=S`, for which the zone of inhibition at 1000 µg/mL in the assay with Aspergillus terreus came out at 10 mm; in the assay on Aspergillus niger it was 11 mm; in the assay on Pseudomonas aeruginosa, 10 mm; in the assay with Klebsiella pneumoniae, 9 mm; in the assay on Aspergillus oryzae, 11 mm; in the assay with Staphylococcus aureus, 12 mm.

In the case of `N#Cc1c(NN)nc(NN)nc1-c1c(-c2ccccc2)[nH]c2ccccc12`, the zone of inhibition at 1000 µg/mL with Aspergillus terreus came to 11 mm; with Aspergillus niger it was 10 mm; with Pseudomonas aeruginosa it was 10 mm; with Klebsiella pneumoniae, 11 mm; in the assay on Aspergillus oryzae, 10 mm; in the assay on Staphylococcus aureus, 8 mm.

One may read the IC50 as the concentration at which inhibition is half-maximal. Consider `CC(C)(C)c1cc(O)ccc1O` [E319], for which the IC50 in assay [1] came to 14.46 µg/mL (≈ 87 µM).

As to `N#Cc1c(NN)nc(NN)nc1-c1c(-c2ccccc2)[nH]c2ccc(Cl)cc12`, the zone of inhibition at 1000 µg/mL in the assay on Aspergillus terreus amounted to 10 mm; with Aspergillus niger, 8 mm; with Pseudomonas aeruginosa, 13 mm; in the assay on Klebsiella pneumoniae it was 10 mm; in the assay on Aspergillus oryzae, 10 mm; in the assay on Staphylococcus aureus, 11 mm.

`Cc1ccc2[nH]c(-c3ccccc3)c(-c3[nH]c(=S)[nH]c(=O)c3C#N)c2c1`: the zone of inhibition at 1000 µg/mL with Aspergillus terreus is 11 mm; in the assay with Aspergillus niger it was 13 mm; in the assay with Pseudomonas aeruginosa, 10 mm; with Klebsiella pneumoniae, 11 mm; in the assay with Aspergillus oryzae it was 11 mm; in the assay with Staphylococcus aureus it was 12 mm.

With `N#Cc1c(-c2c(-c3ccccc3)[nH]c3ccccc23)n2nnnc2n2nnnc12`, the zone of inhibition at 1000 µg/mL was found to be 10 mm with Aspergillus terreus; 10 mm with Aspergillus niger; 14 mm in the assay with Pseudomonas aeruginosa; 12 mm in the assay on Klebsiella pneumoniae; 7 mm in the assay with Aspergillus oryzae; 14 mm in the assay with Staphylococcus aureus.

Turning to `Cc1ccc2[nH]c(-c3ccccc3)c(-c3c(C#N)c4nnnn4c4nnnn34)c2c1`, the zone of inhibition at 1000 µg/mL in the assay on Aspergillus terreus was 12 mm; in the assay on Aspergillus niger, 9 mm; with Pseudomonas aeruginosa it was 10 mm; with Klebsiella pneumoniae, 11 mm; with Aspergillus oryzae, 9 mm; with Staphylococcus aureus, 10 mm.

As to `NNc1nc(-c2c(-c3ccccc3)[nH]c3ccccc23)c2c(N)n[nH]c2n1`, the zone of inhibition at 1000 µg/mL in the assay with Aspergillus terreus was determined as 10 mm; in the assay on Aspergillus niger it was 12 mm; with Pseudomonas aeruginosa, 11 mm; in the assay on Klebsiella pneumoniae, 12 mm; with Aspergillus oryzae, 12 mm; with Staphylococcus aureus it was 12 mm.

Turning to `N#Cc1c(-c2c(-c3ccccc3)[nH]c3ccccc23)[nH]c(=S)[nH]c1=S`, the zone of inhibition at 1000 µg/mL came to 11 mm in the assay with Aspergillus terreus; 11 mm with Aspergillus niger; 7 mm with Pseudomonas aeruginosa; 8 mm with Klebsiella pneumoniae; 10 mm in the assay with Aspergillus oryzae; 8 mm in the assay with Staphylococcus aureus.

Take GENTAMICIN: the values for the inhibition zone (IZ) with Pseudomonas aeruginosa, in the assay on Klebsiella pneumoniae and with Staphylococcus aureus were 16 mm, 15 mm and 15 mm, respectively.

Consider `OC(Cn1cncn1)(Cn1cncn1)c1ccc(F)cc1F` [FLUCONAZOLE], for which the zone of inhibition at 1000 µg/mL in the assay on Aspergillus terreus is 15 mm; in the assay on Aspergillus niger it was 14 mm; with Aspergillus oryzae, 14 mm.

As to `N#Cc1c(-c2c(-c3ccccc3)[nH]c3ccc(Cl)cc23)[nH]c(=S)[nH]c1=O`, the zone of inhibition at 1000 µg/mL in the assay with Aspergillus terreus came to 9 mm; in the assay on Aspergillus niger it was 10 mm; in the assay on Pseudomonas aeruginosa it was 10 mm; in the assay on Klebsiella pneumoniae it was 14 mm; in the assay on Aspergillus oryzae it was 12 mm; in the assay with Staphylococcus aureus it was 14 mm. Moreover, the concentration for half-maximal inhibition (IC50) in assay [1] was 16.43 µg/mL (≈ 43.4 µM). Besides, in assay [2], the Activity was 79.7%.

In the case of `N#Cc1c(-c2c(-c3ccccc3)[nH]c3ccc(Cl)cc23)n2nnnc2n2nnnc12`, the zone of inhibition at 1000 µg/mL with Aspergillus terreus worked out at 11 mm; with Aspergillus niger, 13 mm; with Pseudomonas aeruginosa, 12 mm; in the assay with Klebsiella pneumoniae, 13 mm; in the assay on Aspergillus oryzae it was 10 mm; with Staphylococcus aureus it was 14 mm.

Consider `COc1ccc(O)c(C(C)(C)C)c1.COc1ccc(O)cc1C(C)(C)C` [BUTYLATED HYDROXYANISOLE], for which, in assay [1], the half-inhibitory concentration (IC50) worked out at 14.35 µg/mL.

Regarding `NNc1nc(-c2c(-c3ccccc3)[nH]c3ccc(Cl)cc23)c2c(N)n[nH]c2n1`, the zone of inhibition at 1000 µg/mL in the assay with Aspergillus terreus was 10 mm; in the assay with Aspergillus niger, 9 mm; with Pseudomonas aeruginosa it was 13 mm; in the assay on Klebsiella pneumoniae it was 9 mm; in the assay on Aspergillus oryzae it was 13 mm; in the assay with Staphylococcus aureus, 13 mm.

Take `N#Cc1c(-c2c(-c3ccccc3)[nH]c3ccccc23)[nH]c(=S)[nH]c1=O`: the zone of inhibition at 1000 µg/mL with Aspergillus terreus was 10 mm; with Aspergillus niger, 10 mm; in the assay on Pseudomonas aeruginosa it was 11 mm; in the assay on Klebsiella pneumoniae, 12 mm; with Aspergillus oryzae, 10 mm; in the assay on Staphylococcus aureus it was 11 mm.

The values above are taken from ChEMBL document CHEMBL3045335, “Synthesis, antimicrobial, and antioxidant activities of some new indole analogues containing pyrimidine and fused pyrimidine systems” (Med Chem Res, 2012).
